Experimental findings from patent US20230271142A1, “METHODS OF PREPARING SOLID PARTICULATE MATERIALS” (MICROPORE TECHNOLOGIES LIMITED, priority 2020, published 2023) are described below.

Molecules are shown by their SMILES.

Data set [1] in a line: Particle size distribution of atorvastatin particles produced via LDC (laser diffraction). It is filed as physicochemical. The protocol:
0.6 g of Atorvastatin was dissolved in 10 ml methanol in a beaker at room temperature to make up the organic phase. 0.5% HPMC (Mn 10,000) in DI water was used as the aqueous phase. The LDC was configured with a membrane with 10 μm pores, spaced 200 μm apart in a square grid, in a ring. The stirrer speed was set at […] (1750 rpm), and the organic phase injection rate set at 10 ml/min. The line was primed with organic phase and the CP was poured into the stirred cell. Addition was started and ended when 3 ml of DP was injected. The solution was left to stir until precipitation was visible. The crystals were analyzed via microscopy and Laser Diffraction (Beckmann Coulter LS-230).

Data set [2] is described as follows: Crystal size distribution of prednisolone crystals from CXF by Jorin ViPA. In kind it is physicochemical. As to conditions: 10 μm pores. As for the experimental part: 8 g of Prednisolone was dissolved in 200 ml of ethanol in a beaker at 55° C. to make up the organic phase. 0.5% PVA (Mowiol 23-88) in DI water was used as the aqueous phase.
The CXF was configured with a membrane with 10 μm pores, spaced 200 μm apart in a square grid. A 9.5 mm insert was used. The materials were pumped using gear pumps, calibrated so the aqueous continuous phase flow was […] and the organic disperse phase flow was 28 mL/min.
The aqueous continuous phase was pumped through the annulus at the center of the membrane. The organic disperse phase, held at 55° C., was pumped through the top port of the device, through the membrane pores and into the flow of continuous phase.
The resultant solution was collected in a 500 ml beaker and stirred with an overhead stirrer at 500 rpm for 10-15 minutes. The crystals were analyzed via microscopy and Jorin ViPA. The results are relayed in FIGS. 6 and 7 and Table 3.

The mark [3] stands for this setting: 10 μm pores, methanol solution into 0.5% HPMC water.
Setting [4] is: volume distribution, ethanol solution 55° C. into 0.5% PVA water.

Turning to `CC(C)c1c(C(=O)Nc2ccccc2)c(-c2ccccc2)c(-c2ccc(F)cc2)n1CC[C@@H](O)C[C@@H](O)CC(=O)O` [Atorvastatin], in data set [1], the Span turned out to be 1.66. Besides, the Volume Mean in data set [1] (10 μm pores) was found to be 10.24 μm. In addition, in data set [1] (setting [3]), the D10 is recorded as 4.38 μm, the D50 came to 8.78 μm and the D90 is given as 18.92 μm.

Turning to `C[C@]12C=CC(=O)C=C1CC[C@@H]1[C@@H]2[C@@H](O)C[C@@]2(C)[C@H]1CC[C@]2(O)C(=O)CO` [Prednisolone], in data set [2], the Span is recorded as 0.72 and the “Volume Mean” value turned out to be 45.73 μm. Besides, in data set [2] (setting [4]), the D10 was determined as 29.47 μm, the D50 is given as 43.76 μm and the D90 came to 60.78 μm.
